# Source: PMC10547168, “Cell cycle-dependent organization of a bacterial centromere through multi-layered regulation of the ParABS system” (PLOS Genetics, 2023)
# Molecular target: T1, ParBBb (Bdellovibrio bacteriovorus, UniProt Q6MGM0)
# T1 construct: gene parB; C-terminal 6xHis tag kept (pET21), expressed in E. coli BL21(DE3); HisTrap and Superdex 75 purified; dimer
# T1 sequence (Q6MGM0 1-337): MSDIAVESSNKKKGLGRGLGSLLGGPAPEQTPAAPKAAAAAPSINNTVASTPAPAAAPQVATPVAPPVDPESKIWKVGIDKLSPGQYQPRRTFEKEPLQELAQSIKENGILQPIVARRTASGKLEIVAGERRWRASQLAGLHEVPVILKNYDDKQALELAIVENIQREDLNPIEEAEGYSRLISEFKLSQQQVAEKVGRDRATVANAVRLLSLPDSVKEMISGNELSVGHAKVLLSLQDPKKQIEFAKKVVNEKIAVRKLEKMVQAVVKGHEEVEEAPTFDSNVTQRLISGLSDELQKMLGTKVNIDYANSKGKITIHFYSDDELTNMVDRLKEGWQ
# Assay: EnzChek phosphate release assay (A360)
# Type: biochemical
# Conditions: 1 mM NTP, 1 uM ParBBb, 22 bp parSBb DNA duplex, Mg2+, Tris pH 8.0, 25 °C
smiles,measurement,value
Nc1ccn([C@@H]2O[C@H](COP(=O)(O)OP(=O)(O)OP(=O)(O)O)[C@@H](O)[C@H]2O)c(=O)n1 [CTP],EnzChek phosphate release assay (A360),ParBBb hydrolyses CTP but no other NTPs in the presence of parSBb
